PMC6256987, “Investigating the Activity Spectrum for Ring-Substituted 8-Hydroxyquinolines” (Molecules, 2010)
Converted amounts (≈) assume the structure as drawn.

Assays:
[1] = Lipophilicity determination by RP-HPLC (capacity factor k / log k); format: physicochemical; settings: C18 column, isocratic MeOH 55.0% / H2O 45.0%
Excerpt: A Waters Alliance 2695 XE HPLC separation module and Waters Photodiode Array Detector 2996 (Waters Corp., Milford, MA, USA) were used. A Symmetry® C18 5 μm, 4.6 × 250 mm, Part No. WAT054275, (Waters Corp., Milford, MA, USA) chromatographic column was used. The HPLC separation process was monitored by Millennium32® Chromatography Manager Software, Waters 2004 (Waters Corp., Milford, MA, USA). A mixture of MeOH p.a. (55.0%) and H2O-HPLC– Mili-Q Grade (45.0%) was used as a mobile phase. The total flow of the column was 0.9 mL/min, injection 30 μL, column temperature 30 °C and sample temperature 10 °C. The detection wavelength 210 nm was chosen. The KI methanolic solution was used for the dead time (tD) determination. Retention times (tR) were measured in minutes.
The capacity factors k were calculated using the Millennium32® Chromatography Manager Software according to formula k = (tR - tD)/tD, where tR is the retention time of the solute, whereas tD denotes the dead time obtained via an unretained analyte. Log k, calculated from the capacity factor k, is used as the lipophilicity index converted to log P scale.

M. smegmatis MC2155 = assay: In vitro antimycobacterial evaluation (alamarBlue, 96 well plate); format: cell-based; settings: Mycolicibacterium smegmatis, Middlebrook broth, 37 °C overnight, read-out: MIC/IC90 M. smegmatis
M. absessus CIT21/06 = assay: as above; format: cell-based; settings: Middlebrook broth, 37 °C overnight, read-out: MIC/IC90 M. absessus
M. kansasii CIT11/06 = assay: as above; format: cell-based; settings: Mycobacterium kansasii, CIT11/06, 120 h, Middlebrook broth, 37 °C 5 days, read-out: MIC/IC90 M. kansasii
[2] = system: Mycobacterium avium complex CIT19/06; assay: as above; format: cell-based; settings: 120 h, Middlebrook broth, 37 °C 5 days, read-out: MIC/IC90 M. avium complex

Row | MIC (M. smegmatis MC2155) | MIC (M. absessus CIT21/06) | MIC (M. kansasii CIT11/06) | MIC [2] | SMILES | log k [1]
1 | 100 µg/mL (≈ 287 µM) | > 100 µg/mL | > 100 µg/mL | > 100 µg/mL | Oc1ccc(C=Cc2ccc3c(Cl)cc(Cl)c(O)c3n2)c(O)c1 [Compound 11, 5,7-Dichloro-2-[2-(2,4-dihydroxyphenyl)vinyl]quinolin-8-ol] | 1.5858
2 | > 100 µg/mL | > 100 µg/mL | > 100 µg/mL | > 100 µg/mL | NC(=O)c1cnccn1 [PZA, pyrazinamide, reference compound] | 
3 | 39 µg/mL (≈ 284 µM) | > 100 µg/mL | < 10 µg/mL | < 10 µg/mL | NNC(=O)c1ccncc1 [INH, isoniazid, reference compound] | 

Row | SMILES | MIC (M. smegmatis MC2155) | MIC (M. absessus CIT21/06) | MIC (M. kansasii CIT11/06) | MIC [2] | log k [1]
4 | CC(=O)Oc1ccc(O)c(C=Cc2ccc3c(Cl)cc(Cl)c(O)c3n2)c1 [Compound 13, 5,7-Dichloro-2-[2-(2-hydroxy-5-acetoxyphenyl)vinyl]quinolin-8-ol] | 100 µg/mL (≈ 256 µM) | > 300 µg/mL | > 300 µg/mL | > 300 µg/mL | 1.5864
